# From article PMC8533253, “Bis-thiobarbiturates as Promising Xanthine Oxidase Inhibitors: Synthesis and Biological Evaluation” (Biomedicines, 2021)
# Tests used:
# Xanthine oxidase (XO) = biological target: T1, Xanthine oxidase (XO) (Bos taurus, UniProt P80457); assay: XO inhibitory assay (spectrophotometric quantification of uric acid formation at 295 nm); type: biochemical; settings: for inhibition at 5 µM / inhibition at 30 µM: read-out: XO inhibition (%)
# T1 construct: purchased Sigma-Aldrich X4875
# T1 sequence (P80457 whole entry): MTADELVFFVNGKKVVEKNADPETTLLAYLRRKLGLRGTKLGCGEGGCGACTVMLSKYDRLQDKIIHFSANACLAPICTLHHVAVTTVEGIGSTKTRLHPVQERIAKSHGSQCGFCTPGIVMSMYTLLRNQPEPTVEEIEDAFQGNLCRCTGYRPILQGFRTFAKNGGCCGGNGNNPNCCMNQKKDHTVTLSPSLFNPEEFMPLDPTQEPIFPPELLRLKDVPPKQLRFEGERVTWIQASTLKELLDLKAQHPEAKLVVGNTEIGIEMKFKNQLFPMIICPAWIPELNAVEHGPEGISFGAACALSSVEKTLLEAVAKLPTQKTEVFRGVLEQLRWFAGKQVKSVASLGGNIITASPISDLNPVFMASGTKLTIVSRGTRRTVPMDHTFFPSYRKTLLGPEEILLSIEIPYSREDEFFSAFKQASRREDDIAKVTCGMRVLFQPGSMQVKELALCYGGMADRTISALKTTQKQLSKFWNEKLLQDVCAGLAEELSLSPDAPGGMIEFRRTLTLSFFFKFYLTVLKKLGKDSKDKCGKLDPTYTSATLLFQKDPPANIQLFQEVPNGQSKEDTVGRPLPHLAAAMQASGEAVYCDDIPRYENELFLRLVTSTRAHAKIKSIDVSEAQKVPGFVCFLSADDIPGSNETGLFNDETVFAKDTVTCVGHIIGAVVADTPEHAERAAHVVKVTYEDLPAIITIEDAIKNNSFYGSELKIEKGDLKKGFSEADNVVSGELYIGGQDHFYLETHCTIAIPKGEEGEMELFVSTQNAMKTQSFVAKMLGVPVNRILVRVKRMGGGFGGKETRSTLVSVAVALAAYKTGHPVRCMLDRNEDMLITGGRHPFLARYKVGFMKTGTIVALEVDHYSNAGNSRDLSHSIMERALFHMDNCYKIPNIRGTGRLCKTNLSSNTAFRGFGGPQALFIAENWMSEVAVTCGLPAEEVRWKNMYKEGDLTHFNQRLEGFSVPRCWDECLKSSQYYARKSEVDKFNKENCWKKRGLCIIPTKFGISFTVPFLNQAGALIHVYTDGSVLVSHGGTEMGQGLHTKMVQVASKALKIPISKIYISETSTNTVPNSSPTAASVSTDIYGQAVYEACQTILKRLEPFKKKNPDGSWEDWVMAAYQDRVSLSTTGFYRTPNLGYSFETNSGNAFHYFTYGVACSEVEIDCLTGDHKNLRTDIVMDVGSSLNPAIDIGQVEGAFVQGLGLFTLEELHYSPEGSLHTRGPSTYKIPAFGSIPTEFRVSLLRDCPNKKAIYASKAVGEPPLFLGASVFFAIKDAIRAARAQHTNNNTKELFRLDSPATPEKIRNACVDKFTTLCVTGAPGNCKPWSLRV
# Protocol: XO inhibitory and antioxidant assays were performed in triplicate while antiproliferative assay was conducted in quadruplicate. For each assay, at least two independent experiments were performed. An initial screening at the concentration of 30 μM for all compounds under study was performed in each in vitro study. […] Half-maximal inhibitory concentration (IC50) studies were performed for drugs used as a reference and for the most promising bis-thiobarbiturate in XO inhibitory, antioxidant, and cytotoxicity assays.
# The XO inhibitory activity was evaluated by spectrophotometric quantification of uric acid formation. The 50 mM dihydrogen phosphate buffer (pH 7.4) was used to dilute all solutions. For each assay performed, 50 μL of the test solution and 50 μL of the 0.1 U/mL XO (Sigma-Aldrich X4875, St. Louis, MO, USA) solution were added in each well of an Elisa microplate (96 wells) followed by 5 min of incubation at 37 °C. […] The reaction started with the addition of 150 μL of a xanthine solution (420 μM). The absorbance was recorded at a wavelength of 295 nm every minute for 10 min. To obtain only the absorbance associated with uric acid, a solution consisting of 50 μL of the test solution, 150 μL of the xanthine solution, and 50 μL of buffer were used as blank. […] For each compound, the percentage of enzyme inhibition was calculated according to the following formula:% of XO inhibition = [1 − (ABSsample − ABSblank of sample)/ABSnegative control] × 100
# (§1) All in vitro results are expressed as mean values ± standard deviation (SD) of at least two independent determinations. The difference between groups was analyzed for each assay by Student’s t-test. The IC50 values were calculated by sigmoidal fitting analysis considering a 95% confidence interval.
# [1] = Antioxidant assay, DPPH method; settings: 60 min
# Protocol: (§2) XO inhibitory and antioxidant assays were performed in triplicate while antiproliferative assay was conducted in quadruplicate. For each assay, at least two independent experiments were performed. An initial screening at the concentration of 30 μM for all compounds under study was performed in each in vitro study. A second screening at 5 μM was performed for compounds that originated an inhibitory potential higher than 80% for the XO activity at 30 μM. Half-maximal inhibitory concentration (IC50) studies were performed for drugs used as a reference and for the most promising bis-thiobarbiturate in XO inhibitory, antioxidant, and cytotoxicity assays.
# Antioxidant potential was spectrophotometrically evaluated by the 2,2-diphenyl-1-picrylhydrazyl (DPPH, Sigma-Aldrich, St. Louis, MO, USA) method. All solutions and dilutions were prepared in 99.5% ethanol before each experiment. For each assay, 100 μL of the test solution and 100 μL of DPPH solution (0.2 mM) were added to each well of a 96 wells Elisa microplate. […] After 60 min of incubation in dark at rt, the capacity of each compound to reduce DPPH was followed by measuring the absorbance at 517 nm. Ethanol was used as a negative control and Trolox as the positive control. To discount the absorbance of each compound at 517 nm, a blank was performed with 100 μL of each test compound and 100 μL of ethanol. The antioxidant capacity of each sample was calculated according to the following formula:% DPPH scavenging = [1 − (ABSsample − ABSblank of sample)/ABSnegative control] × 100
# as §1
# [2] = Cytotoxicity assay (MTT) on NHDF; type: cell-based, human; settings: human, NHDF cells (non-tumor human dermal fibroblasts), 72 h, MTT; for viability at 72 h, 30 µM: read-out: Cytotoxicity (% cell viability at 30 µM) NHDF
# Protocol: as §2
# (§3) The cytotoxic potential of the compounds being studied was evaluated by quantifying the extent of the reduction of 3-(4,5-dimethylthiazol-2-yl)-2,5-diphenyltetrazolium bromide (MTT, VWR, Radnor, PA, USA) on tumor cell lines of the colon (Caco-2) and breast (MCF-7) adenocarcinoma and non-tumor human dermal fibroblasts (NHDF). All cell lines were obtained from the American Type Culture Collection (ATCC, Manassas, VA, USA) and were maintained in 75 cm^2 culture flasks in a humidified air incubator with 5% CO2 at 37 °C. NHDF cells have grown in RPMI 1640 medium (Sigma-Aldrich, St. Louis, MO, USA) supplemented with 10% fetal bovine serum (FBS), 10 mM 4-(2-hydroxyethyl)-1-piperazineethanesulfonic acid (HEPES), 2 mM L-glutamine, 1 mM sodium pyruvate, and 1% antibiotic/antimycotic (Ab: 10,000 units/mL penicillin G, […] streptomycin and 25 μg/mL amphotericin B). MCF-7 cells were cultured in high-glucose Dulbecco’s modified Eagle medium (DMEM, Sigma-Aldrich, St. Louis, MO, USA) supplemented with 10% FBS, and 1% Ab. The Caco-2 cell line was cultured in a high glucose DMEM supplemented with 20% FBS and 1% of the antibiotic mixture (Sp: 10,000 units/mL penicillin G and […] of streptomycin). For the assay, cells were seeded in 96-well plates (2 × 10^4 cells/mL) in the culture medium. After 48 h of adherence, cells were treated with the test solutions and incubated for 72 h. […] Untreated cells were used as a negative control and 5-FU as the positive control. Following incubation, the medium was removed and replaced with a fresh incomplete culture medium (without FBS and Ab or Sp) and MTT solution [5 mg/mL in phosphate buffer saline (PBS)]. After further incubation for 4 h at 37 °C, the medium with MTT was removed, formazan crystals were dissolved in DMSO, and the absorbance was read at 570 nm. Results were expressed as the relative cell proliferation in comparison with the negative control cells.
# as §1
# [3] = system: NHDF cells (non-tumor human dermal fibroblasts); assay: Cytotoxicity assay (MTT) on NHDF; type: cell-based
# Protocol: as §2, §3, §1
# [4] = Cytotoxicity/antiproliferative assay (MTT) on Caco-2; type: cell-based; settings: human, read-out: Cytotoxicity (% cell viability at 30 µM) Caco-2
# Protocol: as §2, §3, §1
# [5] = Cytotoxicity/antiproliferative assay (MTT) on MCF-7; type: cell-based; settings: human, MCF-7 cells (breast adenocarcinoma), read-out: Cytotoxicity (% cell viability at 30 µM) MCF-7
# Protocol: as §2, §3, §1
SMILES,IC50 (Xanthine oxidase (XO)),inhibition at 5 µM (Xanthine oxidase (XO)),inhibition at 30 µM (Xanthine oxidase (XO)),DPPH (% scavenging at 30 µM) [1],IC50 ([1]; read-out: DPPH Scavenging IC50),"viability at 72 h, 30 µM [2]",IC50 at 72 h [2],selectivity index for DPPH scavenging activity ([3]; NHDF cytotoxicity versus DPPH scavenging),selectivity index for XO inhibition ([3]; NHDF cytotoxicity versus XO inhibition),"viability at 72 h, 30 µM [4]","viability at 72 h, 30 µM [5]",melting point
"CCn1c(O)c(C(c2ccc(Br)cc2)c2c(O)n(CC)c(=S)n(CC)c2=O)c(=O)n(CC)c1=S [Compound 11, 5,5′-((4-Bromophenyl)methylene)bis(1,3-diethyl-6-hydroxy-2-thioxo-2,3-dihydropyrimidin-4(1H)-one)]",1.79 ± 0.07 µM,80.9%,95.7%,57.25 ± 0.98%,24.7 ± 0.88 µM,94.3 ± 7.84%,93.2 ± 5.54 µM,3.77,52.04,72.3 ± 9.76%,92.2 ± 3.68%,–
"CCn1c(O)c(C(c2ccc([N+](=O)[O-])cc2[N+](=O)[O-])c2c(O)n(CC)c(=S)n(CC)c2=O)c(=O)n(CC)c1=S [Compound 15, 5,5′-((2,4-Dinitrophenyl)methylene)bis(1,3-diethyl-6-hydroxy-2-thioxo-2,3-dihydropyrimidin-4(1H)-one)]",–,–,14.9%,32.33 ± 0.48%,–,91.2 ± 7.77%,–,–,–,96.9 ± 4.73%,91.2 ± 4.26%,169 to 170 °C
"CCn1c(O)c(C(c2cc(O)ccc2[N+](=O)[O-])c2c(O)n(CC)c(=S)n(CC)c2=O)c(=O)n(CC)c1=S [Compound 16, 5,5′-((5-Hydroxy-2-nitrophenyl)methylene)bis(1,3-diethyl-6-hydroxy-2-thioxo-2,3-dihydropyrimidin-4(1H)-one)]",–,–,61.4%,31.35 ± 0.91%,–,60.7 ± 1.72%,–,–,–,95.4 ± 3.3%,91.1 ± 2%,167 to 169 °C
"CCn1c(O)c(C(c2cc3c(cc2[N+](=O)[O-])OCO3)c2c(O)n(CC)c(=S)n(CC)c2=O)c(=O)n(CC)c1=S [Compound 17, 5,5′-((6-Nitrobenzo[d][1,3]dioxol-5-yl)methylene)bis(1,3-diethyl-6-hydroxy-2-thioxo-2,3-dihydropyrimidin-4(1H)-one)]",–,55.2 ± 1.63%,90.8 ± 2.87%,40.90 ± 0.65%,–,68.9 ± 9.33%,–,–,–,88.7 ± 7.85%,86.6 ± 5.87%,148 to 149 °C
"CCn1c(O)c(C(C(C)=Cc2ccccc2)c2c(O)n(CC)c(=S)n(CC)c2=O)c(=O)n(CC)c1=S [Compound 18, 5,5′-(2-Methyl-3-phenylprop-2-ene-1,1-diyl)bis(1,3-diethyl-6-hydroxy-2-thioxo-2,3-dihydropyrimidin-4(1H)-one)]",–,63.4 ± 2.1%,98.85 ± 0.82%,31.04 ± 0.66%,–,86.5 ± 2.38%,–,–,–,94.7 ± 7.19%,88.3 ± 3.29%,145 to 146 °C
"CCn1c(O)c(C(c2cccnc2)c2c(O)n(CC)c(=S)n(CC)c2=O)c(=O)n(CC)c1=S [Compound 19, 5,5′-(Pyridin-3-ylmethylene)bis(1,3-diethyl-6-hydroxy-2-thioxo-2,3-dihydropyrimidin-4(1H)-one)]",–,67.3 ± 1.27%,91.7 ± 1.87%,3.83 ± 2.44%,–,81 ± 3.57%,–,–,–,80.7 ± 13%,93.7 ± 5.68%,253 to 254 °C
